From patent publication US12661431B2, “Pharmaceutical compositions for treating osteoarthritis” (INSIGNIA PHARMACEUTICALS, LLC, priority 2023, dated 2026)
Entries after “also recorded” stand apart in the source; their conditions may differ.

What was measured:
[1] = tested on: THP-1 macrophage-like cells; test: IL-1beta release (ELISA) from PMA-differentiated THP-1 cells activated with LPS then ATP; assay type: cell-based, human; conditions: 0.2 (0.19) to 6 millimolar; LPS 100 ng/mL 24 hours then 10 millimolar ATP 1 hour
Description: The human monocyte cell line THP-1 was differentiated into macrophage-like cells with PMA for 72 hours. […] Cells were then activated with 100 nanograms per milliliter lipopolysaccharide (LPS) for 24 hours followed by an additional hour with 10 millimolar adenosine triphosphate (ATP). LPS is a toll-like receptor 4 (TLR4) agonist, and ATP activates […] to promote inflammasome activity. The resulting IL-1beta release was quantified by enzyme-linked immunosorbent assay (ELISA).

[2] = tested on: THP-1 macrophage-like cells; test: IL-1beta release (ELISA) from PMA-differentiated THP-1 cells stimulated with CL075 with or without ATP; assay type: cell-based, human; conditions: 1 millimolar decanoic acid
Description: TLR7/8 agonists increase inflammasome activity and IL-1beta release through a different pathway relative to TLR4 agonists. To evaluate this response, THP-1 monocytic cells were differentiated to a macrophage-like state using PMA for 72 hours. […] To further activate the inflammasome, ATP was then added to the wells designated “second hit,” and the cultures were incubated for an additional hour. To indicated wells, hyaluronidase was added for 15 minutes, and all mediums harvested for IL-1beta ELISA quantification. Results are depicted in FIG. 7.

[3] = tested on: THP-1 macrophage-like cells; test: Colorimetric MTS cell density/viability assay, resting and activated THP-1 cultures; assay type: cell-based, human; conditions: 6 millimolar decanoic acid
Description: Then cell density was assessed in both resting and activated cultures using a colorimetric MTS assay with optical density at 490 nanometers (FIGS. 6A & 6B).

[4] = tested on: THP-1 macrophage-like cells; test: Tetrazolium colorimetric cell count assay of THP-1 cultures on HA hydrogel; assay type: cell-based, human; conditions: addition of decanoic acid (1 millimolar) on HA hydrogel
Description: A colorimetric assay confirmed that the inhibition of IL-1beta release was not caused solely by reduced cell counts. Tetrazolium colorimetric dye was added to the cultures at the end of the experiment and cell counts were measured by optical density at 490 nanometers.

[5] = tested on: Human osteoarthritic chondrocytes; test: Immunostaining for SOX9, Col2a1 and ACAN of osteoarthritic chondrocytes cultured 24 days on HA hydrogel; assay type: cell-based
From the text: ACAN is an articular cartilage-specific proteoglycan that is important to the proper function and the load-bearing capacity of cartilage. Data is presented as the fluorescence of photographic images captured on an epifluorescent microscope for the ACAN signal (FU) normalized to the signal of 4′,6-diamidino-2-phenylindole (DAPI) nuclear stain, designated as FU/DAPI.
The chondrocytes were layered on top of an HA hydrogel (SYNVISC®, Sanofi-Aventis, United States). Following 24 days, the cells were fixed with paraformaldehyde and immunostained for SOX9, Col2a1, and ACAN.

[6] = tested on: Human osteoarthritic chondrocytes; test: Microscopic examination of chondrocyte spheroid morphology on HA hydrogel; assay type: cell-based
Description: The chondrocytes were layered on top of an HA hydrogel (SYNVISC®, Sanofi-Aventis, United States). Following 20 days, hyaluronidase was added to release the cells from the hydrogel, the cells were collected, and total RNA was isolated.
Control chondrocytes established a monolayer on the bottom surface of their culture wells (FIG. 4A).

[7] = tested on: Osteoarthritic fibroblast-like chondrocytes; test: MMP13 expression by real time RT-PCR in osteoarthritic fibroblast-like chondrocytes; assay type: cell-based; conditions: 0.1 percent hyaluronic acid and/or 0.1 micromolar dexamethasone
Description: Osteoarthritic fibroblast-like chondrocytes were cultured for 2 to 28 days in the presence of either 0.1 percent hyaluronic acid, 0.1 micromolar dexamethasone, or both 0.1 percent hyaluronic acid and 0.1 micromolar dexamethasone. Media was exchanged every 2-3 days. Chondrocytes cultured for 2 days, 14 days, or 28 days were analyzed by real time RT-PCR to assess matrix metallopeptidase 13 (MMP13) expression.

[8] = high-density monolayers, vehicle, 0.1, 0.5 and 1 millimolar decanoic acid

| SMILES | inhibition of inflammasome-IL-1beta release [1] | decrease concentration of IL-1beta ([2]; CL075 24 hours then ATP 1 hour (second hit)) | decrease concentration of IL-1beta ([2]; CL075 24 hours, absence of ATP (first hit)) | cell density / viability (MTS, OD 490 nanometers) [3] | decrease in optical density at 490 nanometers (cell counts) ([4]; CL075, absence of ATP) | decrease in optical density at 490 nanometers (cell counts) ([4]; CL075, presence of ATP) | spheroid development or condensation ([5]; 1 millimolar decanoic acid, 24 days on HA hydrogel) | concentration of peak Col2a1 staining ([5]; high-density monolayers) | punctate staining for Col2a1 [5, 8] | staining for aggrecan (ACAN) [5, 8] | nuclear staining for SOX9 ([5]; high-density monolayers, vehicle, 0.1, 0.5 and 1 millimolar decanoic acid, 24 days on HA hydrogel) | punctate immunostaining for Col2a1 ([5]; low-density monolayers, 1 millimolar decanoic acid) | intracellular staining for ACAN (FU/DAPI, FIG. 1) ([5]; low-density monolayers, increasing millimolar concentrations, strongest at 1 millimolar) | ACAN immunostaining of chondrocyte spheroids ([5]; spheroids on HA hydrogels, 1 millimolar decanoic acid) | spheroid morphology after 4 days of culture ([6]; 4 days on HA hydrogel, with vs without decanoic acid) | spheroid morphology after 20 days of culture ([6]; 20 days on HA hydrogel, 1 millimolar decanoic acid vs without) | Change in MMP13 expression at day 2 [7] | Change in MMP13 expression at day 14 [7] | Change in MMP13 expression at day 28 [7] |
| --- | --- | --- | --- | --- | --- | --- | --- | --- | --- | --- | --- | --- | --- | --- | --- | --- | --- | --- | --- |
| CCCCCCCCCC(=O)O [decanoic acid] | dose-dependent inhibition of IL-1beta concentrations; also recorded: dose-dependent inhibition of inflammasome-IL-1beta release | 91% | 77% | significant decrease in viability; also recorded: unfavorable effect on cell density | 18% | 25% | enhanced spheroid development or condensation | 0.5 millimolar | dose-dependent punctate staining for Col2a1 | dose-dependent increase in staining for aggrecan | enhanced nuclear staining for SOX9 in a dose-dependent manner | strong punctate immunostaining for Col2a1 | dose-dependent increase in aggrecan (ACAN) immunofluorescence staining; also recorded: dose-dependent intracellular staining for ACAN | strong ACAN immunostaining | the spheroids generated interconnected networks; also recorded: promoted interconnected networks of spheroids | increased condensation and the development of large spheroids; also recorded: large spheroid development or condensation |  |  |  |
| C[C@@H]1C[C@H]2[C@@H]3CCC4=CC(=O)C=C[C@]4(C)[C@@]3(F)[C@@H](O)C[C@]2(C)[C@@]1(O)C(=O)CO [dexamethasone] |  |  |  |  |  |  |  |  |  |  |  |  |  |  |  |  | 0 | −399 | −4 |
